From patent US20220364056A1, “SHORT-CHAIN FATTY ACID PENTANOATE AS ENHANCER FOR CELLULAR THERAPY AND ANTI-TUMOR THERAPY” (PHILIPPS-UNIVERSITÄT MARBURG, priority 2019, published 2022)

Key:
[1] = tested on: CD8+ cytotoxic T lymphocytes (CTLs); assay: murine CTLs cultivated under suboptimal conditions with SCFAs; cytokines and effector molecules by flow cytometry and ELISA; format: cell-based
Excerpt: It is known that the glycolytic metabolic pathway promotes IFN-γ expression and T cell effector function. […] We next investigated if acetylation of H4 was increased at CTL-characteristic loci (Ifnγ, Tbx21 and Eomes) after treatment of CTLs with pentanoate. […] Due to the high level of heterogeneity and plasticity within T lymphocytes, we next investigated possible effects of pentanoate on other CD8^+ T cell subtypes. […] To gain further insight into possible therapeutic strategies, we next investigated the impact of pentanoate on human CD8^+ T lymphocytes.
(§1) (A) Experimental design for the treatment of CTLs with the water-soluble fraction of intestinal content derived from SPF or GF mice. (B and C) Frequencies of IFN-γ- and TNF-α-producing CTLs treated with the extract from luminal content derived from indicated organs. Representative results of two experiments are shown (n=3). (D) ELISA was performed to measure the secretion of TNF-α by CLTs treated as shown in (A). (E) Quantitative measurement of total SCFA amounts in fecal samples of SPF and GF mice (n=5). (F and G) The percentage of IFN-γ^+ TNF-α^+ CTLs treated with the indicated SCFAs for three days (n=3, one of three independent experiments is shown). (H) The secretion of TNF-α from CTLs treated with SCFAs was determined by ELISA (n=3, one of two independent experiments is shown). (I) The fluorogenic HDAC assay was applied to measure the HDAC inhibitory activity of SCFAs on CTLs. The value for unstimulated CTLs was arbitrarily set to 1.0. Four independent experiments were performed. (J and K) Representative contour plots (J) and bar graphs (K) showing the frequency of IFN-γ+ and TNF-α+ cells after pentanoate (2 mM) or VPA (0.5 mM) administration. Three similar experiments were performed. (L and M) The frequency of Eomes- and T-bet-expressing CTLs treated with pentanoate (2 mM) or VPA (0.5 mM) for three days was analyzed by flow cytometry (n=4). (N) ChIP assay showing the acetylation of histone H4 at the promoter regions of Ifnγ and Eomes genes after 24 hours of treatment of CTLs with pentanoate. Data are from pooled chromatin of three mice.
Representative histogram plots (A) and bar graphs (B) are showing the frequency of Annexin V^+ cells. Three similar experiments were performed. (C) Representative effector molecule staining of CD8^+ T cells polarized under suboptimal CTL-inducing conditions, treated with pentanoate or TSA (10 nM Sigma-Aldrich) in presence of 2-DG (1 mM, Sigma-Aldrich) or rapamycin (100 nM, Sigma-Aldrich) for 3 days. Three independent experiments were performed. (D) Western blot analysis of H3Ac and H4Ac in CD8^+ T cells treated with SCFAs for 3 days. (E) Pan-H4Ac ChIP qPCR analysis for Tbx21 promoter accessibility in pentanoate-treated CTLs. Data are from pooled chromatin of three mice. (F and G) CD8^+ T cells isolated from WT and Tbx21^−/− mice were polarized under suboptimal CTL-inducing conditions in presence of increasing pentanoate concentrations. Representative contour plots (F) and bar graphs (G) show the frequency of IFN-γ+ and IL-17A^+ cells. Two similar experiments were performed. […]

mTOR = assay: phosphorylation of mTOR and S6 in human CTLs; format: cell-based; settings: three days
Protocol: (A and B) CTLs were cultured in medium containing 1.0% FCS and treated with pentanoate (2.5 mM) for three days. Representative histogram plots and bar graphs indicate the phoshorylated levels of mTOR (A) and S6 ribosomal protein (B), respectively (n=3 pooled from three independent experiments). (C and D) Human CTLs were cultured in medium containing 1.0% serum and treated with indicated HDACi for three days. Representative histogram plots and bar graphs indicate the phoshorylated levels of mTOR (C) and S6 ribosomal protein (D), respectively (data points represent four individual healthy donors) (E) Measurement of extracellular acidification rate (ECAR) for in vitro generated murine CTLs cultured with or without 2.5 mM pentanoate for three days. ECAR was measured under basal conditions and in response to glucose (10 mM), oligomycin (2 μM), and 2-deoxy-glucose (2-DG, 100 mM). One of three independent experiments is shown.

class I HDAC isoforms = assay: HDAC inhibition of recombinant class I HDAC isoforms; format: biochemical; settings: cell-free supernatants vs YCFA medium; TSA as control
[2] = tested on: class II HDACs (HDAC4, HDAC5, HDAC6 and HDAC9); assay: HDAC inhibition of recombinant class II HDAC isoforms; format: biochemical
Protocol: (A) The production of SCFAs, branched-chain fatty acids (BCFAs) and medium-chain fatty acids (MCFAs) by 16 human commensals was measured by GC-MS. All bacteria were grown in vitro until stationary growth phase before the measurement of fatty acids in supernatants. (B and C) HDAC inhibition of recombinant class I and class II HDAC isoforms by cell-free supernatants derived from 16 members of human commensal community. Significance was tested against YCFA medium. (D) Impact of bacterial SCFAs, BCFAs and MSCFAs on the activity of class I and II HDAC enzymes. TSA was used as a control pan-HDAC inhibitor.

human CD8+ T lymphocytes = human CD8+ T lymphocytes differentiated into CTLs, flow cytometry; format: cell-based; settings: healthy donors
Protocol: (A and B) CD8^+ T cells isolated from spleens and LNs were polarized under Tc17-inducing conditions and treated with pentanoate for 3 days. Representative contour plots (A) and bar graphs (B) indicate the frequency of IL-17^+ and IFN-γ+ cells. Three similar experiments were performed. (C and D) CD8^+ T cells isolated from spleens and LNs were polarized under Tc9-inducing conditions and treated with pentanoate for 3 days. Representative contour plots (C) and bar graphs (D) are showing the frequency of IL-9^+ and IFN-γ+ cells. Three similar experiments were performed. (E and F) The expression of granzyme B, IFN-γ and Eomes in pentanoate-treated human CTLs was analysed by flow cytometry. Five independent experiments were performed (E). For Eomes, mean fluorescence intensity (MFI) values are shown (F, n=3).
(A) CD8^+ T cells isolated from peripheral blood of healthy donors were differentiated into CTLs in presence or absence of indicated HDACi. Representative contour plots and dot plots indicate the frequency of TNF-α+ and IFN-γ^+ cells. Data points in the graphs represent individual donors (n=4, performed in 4 independent experiments) (B-G) Phenotyping of pentanoate-treated ROR1-specific CD8^+ CAR T cells (CARROR1 T cells). (B) Experimental setup for the functional analysis is shown. (C) The cytokine secretion (IFN-γ and TNF-α) was analysed in supernatants of pentanoate-treated CARROR1 T cells by ELISA. (D) The surface expression of CD25 was measured by flow cytometry. (E) The secretion of IL-2 was detected in supernatants of CARROR1 T cells by ELISA. (F) Proliferation of CARROR1 T cells was determined by CFSE labelling. CARROR1 T cells pre-treated with pentanoate were stained with CFSE and subsequently co-cultured with […] cells in the absence of pentanoate. CD8^+ T cells without the CAR construct were used as mock control cells. […] The percentage of lysed target cells was determined in 1 hour intervals (effector-to-target cell (E:T) ratio=2.5:1). […]

HDAC = assay: fluorogenic HDAC assay on CTL-derived cell lysates; format: biochemical, murine; settings: unstimulated CTLs set to 1.0
Protocol: as §1, with “(N) ChIP assay showing the acetylation of histone H4 at the promoter regions of Ifnγ and Eomes genes after 24 hours of treatment of CTLs with pentanoate. Data are from pooled chromatin of three mice.” left out

histones H3 and H4 = assay: Western blot of H3Ac and H4Ac in CD8+ T cells; format: cell-based, murine; settings: SCFAs for 3 days
Protocol: Representative histogram plots (A) and bar graphs (B) are showing the frequency of Annexin V^+ cells. Three similar experiments were performed. (C) Representative effector molecule staining of CD8^+ T cells polarized under suboptimal CTL-inducing conditions, treated with pentanoate or TSA (10 nM Sigma-Aldrich) in presence of 2-DG (1 mM, Sigma-Aldrich) or rapamycin (100 nM, Sigma-Aldrich) for 3 days. Three independent experiments were performed. (D) Western blot analysis of H3Ac and H4Ac in CD8^+ T cells treated with SCFAs for 3 days. (E) Pan-H4Ac ChIP qPCR analysis for Tbx21 promoter accessibility in pentanoate-treated CTLs. Data are from pooled chromatin of three mice. (F and G) CD8^+ T cells isolated from WT and Tbx21^−/− mice were polarized under suboptimal CTL-inducing conditions in presence of increasing pentanoate concentrations. Representative contour plots (F) and bar graphs (G) show the frequency of IFN-γ+ and IL-17A^+ cells. Two similar experiments were performed.

## O=CC[C@@H](O)[C@H](O)[C@H](O)CO [2-DG, 2-deoxyglucose, reference compound]
[1]; 2-DG 1 mM or rapamycin 100 nM, 3 days
  IFN-γ production in CTLs: reduction

## CC(C)(CNC(=O)c1cccc(-c2noc(C(F)(F)F)n2)c1)c1coc(-c2ccccc2)n1 [TMP-195, reference compound]
mTOR
  phosphorylation level of S6 ribosomal protein: neither mocetinostat (HDAC class I inhibitor MGCD0103) nor TMP 195 (HDAC class II inhibitor) had a significant effect

## CC(/C=C/C(=O)NO)=C\[C@@H](C)C(=O)c1ccc(N(C)C)cc1 [TSA, trichostatin A, reference compound]
[1]; rapamycin 100 nM co-treatment
  reversal of the effect on granzyme B+IFN-γ+ cells by rapamycin: could not be reversed
[1]; vs control CTLs, TSA 10 nM, 3 days
  percentages of granzyme B+IFN-γ+ CD8+ T cells: substantially enhanced
Class I HDAC isoforms
  activity of class I HDAC isoforms: inhibited
[2]
  activity of class II HDACs: inhibited

## Nc1ccccc1NC(=O)c1ccc(CNc2nccc(-c3cccnc3)n2)cc1 [mocetinostat, reference compound]
Human CD8+ T lymphocytes
  expression of TNF-α and IFN-γ: promoted the similar effects
mTOR
  phosphorylation level of S6 ribosomal protein: neither mocetinostat (HDAC class I inhibitor MGCD0103) nor TMP 195 (HDAC class II inhibitor) had a significant effect

## CCC(=O)O [propionate, reference compound]
HDAC
  HDAC activity of CTL-derived cell lysates: strong reduction of HDAC activity
Histones H3 and H4
  acetylation of histones H3 and H4: increased acetylation
